Laboratory results reported in patent publication US20160326098A1, “Pharmaceutically Active Compound for Use as Anti-inflammatory Agent” (Pax Forschung GmbH, priority 2013, published 2016).

What was measured:
Format in all cases: in vivo
myeloperoxidase (MPO) [1] = experiment: Tissue myeloperoxidase activity, mice with TNBS-induced colitis; conditions: gastric and colon tissue, 1.11 mmol/kg, one day after treatment, vs untreated colitis and ASS groups, FIGS. 13a/13b
Protocol: (§1) Colonic inflammation was induced by intracolonic administration of TNBS (2,4,6-trinitrobenzenesulfonic acid) (40 mg/kg in 0.25 ml of 25% aqueous ethanol) through an 8-cm-long soft plastic catheter under transient diethylether anesthesia. In the sham-operated groups, only the vehicle for TNBS was administered. The animals were deprived of food, but not water, for 12 h before the enemas.
(§2) Colon biopsies kept on ice were homogenized in phosphate buffer (pH 7.4) containing 50 mM Tris-HCl (Reanal, Budapest, Hungary), 0.1 mM EDTA, 0.5 mM dithiothreitol, 1 mM phenylmethylsulfonyl fluoride, 10 μg/ml soybean trypsin inhibitor, and 10 μg/ml leupeptin (Sigma Aldrich GmbH, Munich, Germany). […] The activity of myeloperoxidase (MPO) was measured on the pellet of the homogenate.
(§3) The activity of MPO as a marker of tissue leukocyte infiltration was measured on the pellet of the homogenate. […] The reaction led to the hydrogen peroxide-dependent oxidation of tetramethylbenzidine, which could be detected spectrophotometrically at 450 nm (UV-1601 spetrophotometer; Shimadzu, Kyoto, Japan). Myeloperoxidase activities were measured at 37° C.; the reaction was stopped after 5 minutes by the addition of 0.2 ml of H2SO4 (2 M), and the resulting data were referred to the protein content. […]

nitrite/nitrate (NOx) = experiment: Tissue nitrite/nitrate level, mice with TNBS-induced colitis; conditions: gastric and colon tissue, 1.11 mmol/kg, FIGS. 15a/15b
Protocol: as §1
The levels of plasma nitrite/nitrate (NOx), stable end products of NO were measured by the Griess reaction. This assay depends on the reduction of nitrate to nitrite, which is then converted into a colored azo dye compound that is detected spectrophotometrically at 540 nm.
(§4) The above-described clinical studies were repeated with animals having colitis which was induced as described above. […] Two days after the enema the effects of the treatment were determined by measurement of body weight, blood gas analysis and biopsy. […] Surgery was performed to allow registration of the hemodynamic parameters at 1 h intervals for 6 h (cardiac output [CO] data were measured only at the end of the experiments). […] In addition, fluorescence confocal endomicroscopy was performed to examine the microvasculature and morphologic changes of the mucosa of the distal colon, and full-thickness tissue samples and venous blood samples were taken to determine the biochemical changes in the colon and plasma.

[2] = Haematocrit in blood, rats with TNBS-induced colitis; conditions: 1.11 mmol/kg, vs groups L and M, FIG. 28
Protocol: as §1, §4

TNF-α = experiment: Plasma TNF-α level, rats with TNBS-induced colitis; conditions: 1.11 mmol/kg, vs untreated colitis group M, FIG. 30
Protocol: as §1
Plasma TNF-α concentrations were determined in duplicate by means of a commercially available enzyme-linked immunosorbent assay (Quantikine ultrasensitive enzyme-linked immunosorbent assay kit for rat TNF-α; Biomedica Hungaria Kft, Budapest, Hungary). […]
as §4

myeloperoxidase (MPO) [3] = experiment: Tissue myeloperoxidase activity, rats with TNBS-induced colitis; conditions: gastric and colon tissue, one day after 1.11 mmol/kg, vs untreated colitis and ASS groups, FIGS. 32a/32b
Protocol: as §1, §2, §3

haematocrit level in the blood [2]: slightly higher
Compound: CC(=O)Oc1ccccc1C(=O)NC(CO)(CO)CO [compound according to the invention]
myeloperoxidase enzyme activity (myeloperoxidase (MPO) [1]): decrease of activity | nitrite/nitrate level (nitrite/nitrate (NOx)): nitrite/nitrate levels comparable to those of healthy animals | plasma TNF-α level (TNF-α): significant decrease in the TNF-α level | myeloperoxidase enzyme activity (myeloperoxidase (MPO) [3]): decrease of activity
